Reference: patent US20080085885A1, “Inhibition Of Voluntary Ethanol Consumption With Non-Peptidyl Melanocortin-4 Receptor Agonists” (priority 2004, published 2008)
“Also recorded” adds a separate entry of the source.

Key:
hMC1bR = hMC1bR (Homo sapiens, UniProt Q01726); assay: cAMP functional assay (agonist); assay type: cell-based; conditions: functional selectivity stated in text; 45 min
Procedure: Cells (for example, CHO- or L-cells or other eukaryotic cells) expressing a human melanocortin receptor (see e.g. Yang-YK; Ollmann-MM; Wilson-BD; Dickinson-C; Yamada-T; Barsh-GS; Gantz-I; Mol-Endocrinol. 1997 March; 11(3): 274-80) were dissociated from tissue culture flasks by rinsing with Ca and Mg free phosphate buffered saline (14190-136, Life Technologies, Gaithersburg, Md.) and detached following 5 min incubation at 37° C. with enzyme free dissociation buffer (S-014-B, Specialty Media, Lavellette, N.J.). Cells were collected by centrifugation and resuspended in Earle's Balanced Salt Solution (14015-069, Life Technologies, Gaithersburg, Md.) with additions of 10 mM HEPES pH 7.5, 5 mM MgCl2, 1 mM glutamine and 1 mg/ml bovine serum albumin. Cells were counted and diluted to 1 to 5×10^6/mL. The phosphodiesterase inhibitor 3-isobutyl-1-methylxanthine was added to cells to 0.6 mM.
Agonist Assay: Test compounds were diluted in dimethylsulfoxide (DMSO) (10^−5 to 10^−10 M) and 0.1 volume of compound solution was added to 0.9 volumes of cell suspension; the final DMSO concentration was […]. After room temperature incubation for 45 min, cells were lysed by incubation at 100° C. for 5 min to release accumulated cAMP.
cAMP was measured in an aliquot of the cell lysate with the Amersham (Arlington Heights, Ill.) cAMP detection assay (RPA556). […]

Male Wistar rats [1] = assay: Maintenance operant ethanol self-administration (animal model of alcohol reward); assay type: in vivo, rat
Procedure: (§1) FIG. 1. Operant training for oral ethanol across 30 minute test sessions in rats (n=8-10). Rats were trained on a continuous reinforcement (FR-1) schedule using a saccharine fading procedure and once stable levels of ethanol self-administration (10% w/v) were achieved, testing was initiated. Test 1 examined the effects of melanocortin 4 receptor agonist, Compound A, on maintenance levels of ethanol self-administration and Test 2 examined the effects of Compound A on the Alcohol Deprivation Effect (ADE).
FIG. 2. […] Operant training for oral ethanol in 30 minute test sessions in rats (n=8-10). Melanocortin 4 receptor agonist, Compound A, was administered at 0, 5, 10 or 20 mg/kg, po prior to testing. […] The symbol * indicates a significant difference between the vehicle and drug treated groups (p<0.05).
Animals: Male Wistar rats were used in all experiments. Body weight was 180-200 g at the start of the experiments. Rats were housed 2-3 per cage with food and water available ad libitum. Lights were on a 12-hour light/dark cycle, with lights on at 0600. All procedures met the guidelines of the National Institutes of Health Guide for the Care and Use of Laboratory Animals.
Operant Ethanol Self-Administration: Ethanol dilutions (5, 8 and 10% w/v) were prepared with 95% ethyl alcohol and tap water. Saccharin (Sigma Chemical Co., St. Louis, Mo.) was added to water or ethanol solutions to achieve a concentration of 0.2% w/v. Standard operant chambers (Med Associates, VT) housed in sound-attenuated chambers were used for ethanol self-administration. Syringe pumps dispensed ethanol and water into two stainless steel reservoirs mounted 4 cm above the floor of the chamber, centered between the two operant levers. The two retractable levers were located 4.5 cm to either side of the fluid reservoir. Fluid delivery and recording of operant responding were controlled by microcomputer. Rats were trained on a continuous reinforcement fixed-ratio 1 (FR1) schedule to self-administer oral alcohol (10% w/v, 0.1 ml per delivery) or water in 30 minute sessions. […]

Male Wistar rats [2] = assay: Alcohol deprivation effect (ADE) after 10 day deprivation (animal model of alcohol relapse); assay type: in vivo, rat; conditions: for Alcohol deprivation effect (ethanol consumed after 10 day deprivation): po
Procedure: as §1
FIG. 3. […] Operant training for oral ethanol in 30 minute test sessions in rats (n=8-10). Following the maintenance self-administration test, rats were rebaselined prior to being confined to their home-cages for a 10 day deprivation period. Melanocortin 4 receptor agonist, Compound A was administered at 0, 5, 10 or 20 mg/kg, po prior to reintroduction to the test chambers following deprivation. […] The symbol * indicates a significant difference between baseline and drug treated groups (p<0.05). The symbol # indicates a significant difference between vehicle treated (ADE) and drug treated groups (p<0.05).
Method: Methods for this experiment were as described in EXAMPLE 3. Following the maintenance ethanol self-administration experiment, rats were re-baselined and once reliable levels of alcohol-reinforced self-administration were achieved, rats were confined to their home cages for a 10-day period. Prior to reintroduction to the test chamber, animals were injected with Compound (0, 5, 10 and 20 mg/kg).

AA rats = AA rats with established ethanol intake; Ploj et al. 2002; cited from earlier work

Sequence of hMC1bR (Q01726 whole entry): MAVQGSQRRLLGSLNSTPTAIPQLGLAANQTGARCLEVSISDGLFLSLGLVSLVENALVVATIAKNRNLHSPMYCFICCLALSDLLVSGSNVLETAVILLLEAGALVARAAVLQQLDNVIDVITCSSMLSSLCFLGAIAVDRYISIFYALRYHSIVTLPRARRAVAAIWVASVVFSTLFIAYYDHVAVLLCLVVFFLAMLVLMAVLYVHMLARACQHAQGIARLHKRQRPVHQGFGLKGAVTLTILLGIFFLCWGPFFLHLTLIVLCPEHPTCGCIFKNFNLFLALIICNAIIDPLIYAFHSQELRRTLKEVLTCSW

EC50 for melanocortin 4 receptor lower than for melanocortin 1 receptor (hMC1bR)	Compound	Ethanol self-administration (10% w/v), 30 minute session (Male Wistar rats [1]; 20 mg/kg, po, vs vehicle/baseline, p<0.05)	Water consumption (Male Wistar rats [1]; maintenance test, any dose (5, 10, 20 mg/kg, po))	Reduction of ethanol self administration (Male Wistar rats [1]; male Wistar rats, dose dependent, FIG. 2)	Alcohol deprivation effect (ethanol consumed after 10 day deprivation) (Male Wistar rats [2]; 5 mg/kg)	Alcohol deprivation effect (ethanol consumed after 10 day deprivation) (Male Wistar rats [2]; 10 mg/kg)	Alcohol deprivation effect (ethanol consumed after 10 day deprivation) (Male Wistar rats [2]; 20 mg/kg)	Water consumption (Male Wistar rats [2]; ADE test, any dose (5, 10, 20 mg/kg, po))	Alcohol deprivation effect, overall statement (Male Wistar rats [2]; male Wistar rats, 10 day forced deprivation, FIG. 3)	Voluntary ethanol drinking (AA rats)
at least 120 fold	CC[C@H](NC(C)=O)c1cc(Cl)ccc1C1CCN(C(=O)C2CN(C(C)(C)C)C[C@H]2c2ccc(F)cc2F)CC1 (stereo partly shown) [Compound A]	significant reductions from baseline levels; also recorded: significant reduction in ethanol self-administration	not significantly altered; also recorded: not significantly changed; also recorded: no significant effects on water consumption	approximately 50%	blocking the ADE; also recorded: significant attenuation of the alcohol deprivation effect	blocking the ADE; also recorded: significant attenuation of the alcohol deprivation effect	significant decrease below baseline levels of consumption; also recorded: further reduction below baseline levels	not significantly altered; also recorded: not significantly changed	reduced the increase in ethanol consumption	–
–	MTII	–	–	–	–	–	–	–	–	significantly reduces voluntary ethanol drinking
